What was measured:
tool melanocytes = experiment: Inhibition of NGF/UV-induced melanin generation in tool melanocytes (absorbance at 490 nm); assay type: cell-based; settings: 60 h, FIG. 6
Method: Human melanocytes and tool melanocytes were used to conduct the experiment in this section. Human melanocytes and tool melanocytes were inoculated in a 96-well plate, with a plating density of 5,000 cells/well. After the cells adhered to a wall, nerve growth factor (NGF) was added to the culture and the culture was irradiated with UV to induce the generation of melanin, which simulated a melanin generation process in vivo. Then β-D-glucoside derivatives to be tested each were added at a final concentration of 100 μM to the cells, and the cells were further cultivated in an incubator at 37° C. and 5% CO2 for 60 h, where 3 replicates were set for each group. […] The cells were lysed with a NaOH (1 mol/L) solution including 10% dimethyl sulfoxide (DMSO) in a 65° C. water bath to make melanin granules completely dissolved out, and the absorbance at 490 nm was determined with a microplate reader. Finally, the absorbance value was used to reflect a melanin content.
Human melanocytes and tool melanocytes were used to conduct the experiment in this section. […] The cells were lysed with a NaOH (1 mol/L) solution including 10% DMSO in a 65° C. water bath to make melanin granules completely dissolved out, and the absorbance at 490 nm was determined with a microplate reader. Finally, the absorbance value was used to reflect a melanin content. […]

Human melanocytes = experiment: Inhibition of NGF/UV-induced melanin generation in human melanocytes (absorbance at 490 nm); assay type: cell-based; settings: 60 h
Method: Human melanocytes and tool melanocytes were used to conduct the experiment in this section. Human melanocytes and tool melanocytes were inoculated in a 96-well plate, with a plating density of 5,000 cells/well. After the cells adhered to a wall, nerve growth factor (NGF) was added to the culture and the culture was irradiated with UV to induce the generation of melanin, which simulated a melanin generation process in vivo. Then β-D-glucoside derivatives to be tested each were added at a final concentration of 100 μM to the cells, and the cells were further cultivated in an incubator at 37° C. and 5% CO2 for 60 h, where 3 replicates were set for each group. The cells were washed with pre-cooled phosphate buffered saline (PBS), then digested with trypsin, and centrifuged, and a resulting supernatant was discarded. The cells were lysed with a NaOH (1 mol/L) solution including 10% dimethyl sulfoxide (DMSO) in a 65° C. water bath to make melanin granules completely dissolved out, and the absorbance at 490 nm was determined with a microplate reader. Finally, the absorbance value was used to reflect a melanin content.
Human melanocytes and tool melanocytes were used to conduct the experiment in this section. Human melanocytes and tool melanocytes were inoculated in a 96-well plate, with a plating density of 5,000 cells/well. After the cells adhered to a wall, NGF was added to the culture and the culture was irradiated with UV to induce the generation of melanin, which simulated a melanin generation process in vivo. SP-037 was added to the cells at 6 concentrations of 0 μM, 12.5 μM, 25 μM, 50 μM, 100 μM, and 200 μM, and then the cells were further cultivated in an incubator at 37° C. and 5% CO2 for 60 h, where 5 replicates were set for each group. The cells were washed with pre-cooled PBS, then digested with trypsin, and centrifuged, and a resulting supernatant was discarded. The cells were lysed with a NaOH (1 mol/L) solution including 10% DMSO in a 65° C. water bath to make melanin granules completely dissolved out, and the absorbance at 490 nm was determined with a microplate reader. Finally, the absorbance value was used to reflect a melanin content.
Human melanocytes and tool melanocytes were used to conduct the experiment in this section. Human melanocytes and tool melanocytes were inoculated in a 96-well plate, with a plating density of 5,000 cells/well. […] The cells were lysed with a NaOH (1 mol/L) solution including 10% DMSO in a 65° C. water bath to make melanin granules completely dissolved out, and the absorbance at 490 nm was determined with a microplate reader. Finally, the absorbance value was used to reflect a melanin content.

Kunming mice = experiment: Long-term toxicity test on mouse skin; assay type: in vivo
Method: Kunming mice were used to conduct the experiment in this section. SP-037 was prepared into solutions with concentrations of 2.5% (mass to volume ratio), 5% (mass to volume ratio), and 10% (mass to volume ratio) using NS. A control group, a 2.5% dosage group, a 5% dosage group, and a 10% dosage group were set, separately. One mouse was used for the blank group, and two mice were used for each of the experimental groups. Application on the dorsal skin: the hair on the back of mice was removed by depilatory cream, and a drug was applied at a corresponding concentration on the bare skin every day, which lasted for 3 months. During the test period, pictures were taken and the body weight of mice were recorded regularly, and it was observed whether there were white spots and other skin irritation or poisoning phenomena.

[1] = test system: arm skin of the volunteers; experiment: Human skin irritation test (patch test); assay type: in vivo; settings: gel with 10% SP-037 in 2% sodium carboxymethyl cellulose
Method: In order to further achieve the use of SP-037 in the field of skin care, it is necessary to ensure the safety of SP-037 first. In the experiment of this section, a gel (2% sodium carboxymethyl cellulose prepared with deionized water) with the main component of 10% SP-037 was prepared, then volunteers were recruited, and a patch test was conducted on the arm skin of the volunteers to evaluate the safety of SP-037.

[2] = test system: skin at the inner side of the arm of volunteers with dark skin; experiment: Skin whitening effect in volunteers (Dermalab skin color probe, melanin and L*a*b values); assay type: in vivo, human
Method: A total of 33 volunteers with dark skin were recruited, and the 33 volunteers were 22 to 38 years old. The 33 volunteers were randomly divided into 7 groups, including: a blank control group: 3, an SP-037 group: 5; a VC group: 5; a kojic acid group: 5; a thiamidol group: 5; a hydroquinone group: 5; and a 377 group: 5. A blank gel and gels with the main components of SP-037, VC, kojic acid, thiamidol, hydroquinone, and 377 respectively were prepared. An inner side of the left arm of each volunteer in each group was washed and then evenly applied with a corresponding gel every day, which lasted for 4 weeks. The Dermalab instrument was used to determine the characteristics of skin at the inner side of the arm with a skin color test probe on day 0, day 14, and day 28 to obtain melanin and L*a*b values, and according to final statistical data, the whitening effect of each component was analyzed.

Compound: OC[C@H]1O[C@@H](OCCc2cc(O)cc(O)c2)[C@H](O)[C@@H](O)[C@@H]1O [SP-037]
- inhibitory activity on melanin generation compared with whitening positive drugs (tool melanocytes): significantly better than that of VC and kojic acid, but slightly inferior to that of hydroquinone
- effect of SP-037 on a melanin content (Human melanocytes; 0-200 μM, human melanocytes and tool melanocytes (not separated in text), FIG. 5): can significantly inhibit the generation of melanin at a cellular level
- effects of β-D-glucoside derivatives on a melanin content (Human melanocytes; final concentration 100 μM, human melanocytes and tool melanocytes (not separated in text), FIG. 1): shows the optimal effect
- inhibitory activity on in vitro simulated melanin generation compared with whitening positive drugs (Human melanocytes; human melanocytes, FIG. 6): significantly better than that of the positive drugs VC, kojic acid, and hydroquinone
- concentration showing an ideal effect on melanin generation (Human melanocytes; tested at 12.5-200 μM, human melanocytes and tool melanocytes, FIG. 5): 50 µM
- white spots, skin irritation injuries or poisoning symptoms (Kunming mice; 2.5%, 5%, 10% (mass to volume) in NS applied daily on dorsal skin): none of the mice has white spots, redness and swelling, and other skin irritation injuries, or poisoning symptoms
- changes in the body weight and skin condition (Kunming mice; 2.5%, 5%, 10% (mass to volume) in NS applied daily on dorsal skin, FIG. 7 and FIG. 8): in line with the growth pattern of normal mice
- white spots, skin irritation and toxicity (conclusion of long-term toxicity test) (Kunming mice; at a dosage of 10% (mass to volume ratio)): will not cause white spots, skin irritation, and toxicity
- irritating pain, itching felt by volunteers during patch test [1]: no irritating pain, itching, or the like
- sensitization to the skin (patch test) ([1]; FIG. 9): has no sensitization to the skin
- effect on melanin content in skin (skin melanin pigmentation) ([2]; gel applied daily for 4 weeks, day 0, 14, 28, FIG. 10): can significantly improve the skin melanin pigmentation
- effect on skin brightness ([2]; gel applied daily for 4 weeks, day 0, 14, 28, FIG. 11): improve the skin brightness
- whitening effect compared with VC, kojic acid, thiamidol, hydroquinone and 377 ([2]; gels applied daily for 4 weeks, FIG. 10 and FIG. 11): significantly better than that of raw materials VC, kojic acid, thiamidol, and hydroquinone currently on the market, but slightly inferior to that of 377

Reference: patent US12171856B2, “Use of salidroside derivative in external preparation for skin whitening” (SHANGHAI CHEERMORE BIOLOGICAL TECHNOLOGY CO., LTD, priority 2019, dated 2024)
